Measured values published in patent publication US20140314882A1, “Synergistic Combination Therapy” (President and Fellows of Harvard College, priority 2009, published 2014).

Test system: S. cerevisiae cells (strain BY4741)
Experiment: concentration matrix drug synergy test on S. cerevisiae growth (OD595 growth curves)

SMILES	effect on yeast growth
C/C1=C/C(=O)O[C@@H]2C[C@@H](CC[C@H](C)/C=C\CC1)O[C@@](O)([C@@H]1CSC(=O)N1)C2 [latrunculin B]	only mildly reduced yeast growth
C=CC[C@@H]1/C=C(\C)C[C@H](C)C[C@H](OC)[C@H]2O[C@@](O)(C(=O)C(=O)N3CCCC[C@H]3C(=O)O[C@H](/C(C)=C/[C@@H]3CC[C@@H](O)[C@H](OC)C3)[C@H](C)[C@@H](O)CC1=O)[C@H](C)C[C@@H]2OC [tacrolimus]	only mildly reduced yeast growth
